Results taken from patent US10596223B2, “JNK inhibitor molecules for treatment of various diseases” (Xigen Inflammation Ltd., priority 2011, dated 2020).
Square brackets hold non-standard residues; d marks the D form. Peptide text beside a SMILES is read from it.

What was measured:
[1] = tested on: Primary Rat Whole Blood Cells; test: Cytokine release in rat whole blood (LPS or PMA+ionomycin, 4 h); assay type: cell-based; conditions: 10 μM inhibitor, three activator concentrations
Experimental: Given are the results for the control, 1 μM of SEQ ID NO: 172, 3 μM of SEQ ID NO: 172, and 10 μM of SEQ ID NO: 172 at different levels of LPS (ng/ml).
FIG. 17 Dose dependent inhibition of IL-2 release in rat whole blood stimulated with PMA+ionomycin. JNK inhibitor with SEQ ID NO: 172 was added at three different concentrations, namely 1, 3 and 10 μM 1 h before stimulation with PMA+ionomycin. Three doses of activators were added (25/500 ng/mL, 50/750 ng/mL and 50/1000 ng/mL) for 4 h. IL-2 release was assessed in supernatant.
Whole blood is collected from anesthetized rat or human healthy volunteers using a venipuncture connected to a pre-labeled vacuum tube containing sodium citrate. Tubes are gently mixed by inversion 7-8 times; and are then kept at RT until stimulation. JNK inhibitor of SEQ ID NO: 172_is prepared […] concentrated in PBS, and 30 μl/well of mix is added into 96-well plate. Whole blood is diluted by 1:2 in PBS and 120 μl of diluted blood is added in each well where either PBS alone or JNK inhibitor of SEQ ID NO: 172 has been previously added. Whole blood is incubated at 37° C.; 85 rpm (Stuart Orbital incubator S1500) for 60 min. […] Cytokine (IL-6, IL-2, IFNγ and TNFα) were then measured using standard Elisa kits (e.g. from R&D Systems: DuoSet Elisas; or from BD Biosciences: BD Opteia Set Elisa). Results are expressed as pg/ml of supernatant of the measured cytokine. […]

[2] = Stability (half-life) in human serum, intact peptide by UPLC-MS; assay type: in vitro ADME; conditions: human serum (50% in FIG. 5; 10 and 50% in PBS), 0.1 mM peptide
Experimental: FIG. 5: Stability of JNK inhibitors with SEQ ID NOs: 172, 196 and 197 in 50% human serum. The JNK inhibitor with SEQ ID NO: 196 was totally degraded into amino acids residues within 6 hours (A). The JNK inhibitor with SEQ ID NO: 172 was completely degraded only after 14 days (B). The JNK inhibitor with SEQ ID NO: 197 was stable at least up to 30 days (B).
The JNK inhibitors with the sequence of SEQ ID NOs: 196, 197, and 172 (0.1 mM final concentration) were digested in human serum (10 and 50% in PBS 1×). The experiment was performed as described by Tugyi et al. (Proc Natl Acad Sci USA, 2005, 413-418). The remaining intact peptide was quantified by UPLC-MS. Stability was assessed for SEQ ID NOs: 196, 197, and 172 identically but in two separate assays. While the JNK inhibitor with SEQ ID NO: 196 was totally degraded into amino acids residues within 6 hours, the JNK inhibitor with SEQ ID NO: 172 was completely degraded only after 14 days. The JNK inhibitor with SEQ ID NO: 197 was still stable after 30 days.

[3] = tested on: endotoxins-induced uveitis albino rat model; test: Endotoxins induced uveitis (EIU), single intravenous injection, clinical scoring 24 hours after LPS; assay type: in vivo; set-up: key to clinical score of ocular inflammation, mean score (mean±SEM) / clinical score of ocular inflammation, median: ocular inflammation score per eye, 0 = none to 4 = intense (+1 fibrin); conditions: for clinical score of ocular inflammation, mean score (mean±SEM) / clinical score of ocular inflammation, median: 24 hours after LPS
Experimental: FIG. 28 Clinical evaluation of administration of different amounts of the JNK inhibitor according to SEQ ID NO: 172 in albino rats after intravenous administration (endotoxins induced uveitis model). Form left to right: Vehicle, 0.015 mg/kg (i.v.) of SEQ ID NO: 172; 0.18 mg/kg (i.v.) of SEQ ID NO: 172; 1.8 mg/kg (i.v.) of SEQ ID NO: 172, 2 mg/kg (i.v.) of SEQ ID NO: 197 and 20 μg dexamethasone (administered directly by subconjunctival injection to the eye). Indicated is the clinical score (mean and the SEM).
The anti-inflammatory potency of the JNK inhibitor of SEQ ID NO: 172 was tested in albino rats following intravenous administration (EIU/LPS model). The aim of this study was to determine the effects of single intravenous injections of SEQ ID NO: 172 (0.015, 0.18, and 1.80 mg/kg) on the inflammatory response in an endotoxins-induced uveitis albino rat model and to compare these affects to those obtained with prior art JNK inhibitor of SEQ ID NO: 197 (2 mg/kg). As a further control served phosphate sodic dexamethasone.
Sixty (60) male Lewis rats were randomly divided into six (6) groups of ten (10) animals each. EIU was induced by footpad injection of lipopolysaccharide (LPS, 1 mg/kg). NaCl (0.9%), SEQ ID NO: 197 at 2 mg/kg and SEQ ID NO: 172 at three concentrations (1.80 mg/kg, 0.18 mg/kg and 0.015 mg/kg) were administered by intravenous injection. Phosphate sodic dexamethasone ([…]) was administered by sub-conjunctival injection in both eyes. 24 hours after LPS injection, inflammatory response was evaluated by clinical scoring.
The intensity of clinical ocular inflammation was scored on a scale from 0 to 4 for each eye: • Grade 0 no inflammation • Grade 1 slight iris and conjunctival vasodilation • Grade 2 moderate iris and conjunctival vasodilation with flare • Grade 3 intense iris and conjunctival vasodilation with flare • Grade 4 intense inflammatory reaction • (+1) fibrin formation and seclusion of pupils

CC(C)C[C@H](NC(=O)[C@H](CC(N)=O)NC(=O)[C@H](CC(C)C)NC(=O)[C@@H](NC(=O)[C@@H](C)NC(=O)[C@@H]1CCCN1C(=O)[C@H](CCCNC(=N)N)NC(=O)[C@@H](CCCCN)NC(=O)[C@@H]1CCCN1C(=O)[C@H](CCCNC(=N)N)NC(=O)[C@@H](CCCNC(=N)N)NC(=O)[C@H](CCCNC(=N)N)NC(=O)[C@H](CCCNC(=N)N)NC(=O)[C@H](CCC(N)=O)NC(=O)[C@@H](CCCNC(=N)N)NC(=O)[C@H](CCCNC(=N)N)NC(=O)[C@H](CCCCN)NC(=O)[C@H](CCCCN)NC(=O)[C@H](N)CCCNC(=N)N)[C@@H](C)O)C(=O)N[C@H](Cc1ccccc1)C(N)=O [SEQ ID NO: 172, rKKRrQRRrRPkRPaTLNLf] (H-[dR]KKR[dR]QRR[dR]RP[dK]RP[dA]TLNL[dF]-NH2; N-terminus assumed)
PMA-iono-induced IL-2 release [1]: did efficiently reduce PMA-iono-induced IL-2 release
completely degraded only after [2]: 14 days
clinical score of ocular inflammation, mean score (mean±SEM) ([3]; 0.015 mg/kg intravenous): 2.3±0.3
clinical score of ocular inflammation, median ([3]; 0.015 mg/kg intravenous): 2
clinical score of ocular inflammation, mean score (mean±SEM) ([3]; 0.18 mg/kg intravenous): 2.4±0.3
clinical score of ocular inflammation, median ([3]; 0.18 mg/kg intravenous): 2
clinical score of ocular inflammation, mean score (mean±SEM) ([3]; 1.80 mg/kg intravenous): 2.1±0.3
clinical score of ocular inflammation, median ([3]; 1.80 mg/kg intravenous): 2
endotoxin-induced inflammation in the anterior chamber (conclusion) ([3]; single intravenous injection, SEQ ID NO: 197 at 2 mg/kg, SEQ ID NO: 172 at 0.015, 0.18, 1.80 mg/kg): also reduced the endotoxin-induced inflammation
